For test [1], the system named is T1 cells (naturally co-express both TAP2 and TAP2iso). Conditions: in words.
In a further test the target is T1, TAP1/TAP2iso heterodimer (Homo sapiens, UniProt Q03518+Q03519).
T1 construct: expressed in transfected cells
T1 sequence (Q03519 1-653 isoform Q03519-2 L359K/V379I): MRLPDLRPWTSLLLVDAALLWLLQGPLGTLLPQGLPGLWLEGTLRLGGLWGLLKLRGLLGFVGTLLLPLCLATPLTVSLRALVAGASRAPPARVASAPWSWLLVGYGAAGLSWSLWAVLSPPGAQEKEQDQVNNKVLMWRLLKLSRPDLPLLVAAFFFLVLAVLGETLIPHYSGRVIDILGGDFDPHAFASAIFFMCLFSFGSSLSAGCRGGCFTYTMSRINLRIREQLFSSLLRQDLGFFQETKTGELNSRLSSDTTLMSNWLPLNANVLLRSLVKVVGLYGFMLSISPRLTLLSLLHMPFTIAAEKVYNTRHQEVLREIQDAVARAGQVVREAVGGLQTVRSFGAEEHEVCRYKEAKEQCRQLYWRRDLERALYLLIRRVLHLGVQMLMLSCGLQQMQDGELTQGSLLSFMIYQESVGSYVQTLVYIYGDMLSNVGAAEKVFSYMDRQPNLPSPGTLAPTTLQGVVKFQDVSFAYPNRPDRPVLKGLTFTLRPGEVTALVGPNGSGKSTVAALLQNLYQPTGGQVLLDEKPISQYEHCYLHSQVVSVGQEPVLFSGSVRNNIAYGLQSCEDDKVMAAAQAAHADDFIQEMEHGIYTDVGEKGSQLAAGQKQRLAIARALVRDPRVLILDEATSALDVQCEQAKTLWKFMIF
T1 sequence (Q03518 1-748): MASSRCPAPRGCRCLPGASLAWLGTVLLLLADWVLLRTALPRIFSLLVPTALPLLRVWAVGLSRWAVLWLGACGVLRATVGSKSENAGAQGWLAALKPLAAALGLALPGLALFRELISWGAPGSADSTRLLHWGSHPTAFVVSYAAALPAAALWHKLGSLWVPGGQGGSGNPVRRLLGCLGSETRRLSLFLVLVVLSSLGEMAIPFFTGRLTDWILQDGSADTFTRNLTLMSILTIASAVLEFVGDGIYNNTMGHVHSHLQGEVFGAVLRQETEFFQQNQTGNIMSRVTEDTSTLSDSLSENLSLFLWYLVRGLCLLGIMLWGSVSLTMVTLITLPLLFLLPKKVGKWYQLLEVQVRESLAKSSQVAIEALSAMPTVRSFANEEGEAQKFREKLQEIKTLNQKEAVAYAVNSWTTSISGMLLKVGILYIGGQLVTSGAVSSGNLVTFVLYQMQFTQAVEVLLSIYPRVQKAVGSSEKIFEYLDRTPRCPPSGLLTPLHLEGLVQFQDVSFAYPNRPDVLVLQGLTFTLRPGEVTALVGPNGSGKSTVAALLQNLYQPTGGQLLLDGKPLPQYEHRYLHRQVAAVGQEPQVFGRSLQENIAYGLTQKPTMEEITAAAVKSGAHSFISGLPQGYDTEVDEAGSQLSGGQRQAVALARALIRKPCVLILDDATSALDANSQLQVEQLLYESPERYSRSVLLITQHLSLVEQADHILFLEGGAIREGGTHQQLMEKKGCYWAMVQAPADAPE
The test is described as follows: competition with transport of 125I-Peptide RRYQNSTEL in TAP1/TAP2iso transfectants. In kind it is cell-based. Conditions: unlabeled competitor peptide; comparison in words. How it is done:
(§1) Glycosylated ^125 I Peptide […] (SEQ ID NO: 6), Peptide […] (SEQ ID NO: 7), or Peptide […] (SEQ ID NO: 8) was recovered and measured. The peptide translocation assay was performed essentially as previously described (Neefjes et al., Science, 261:769 (1993); and Momburg et al., J. Exp. Med., 179:1613 (1994)). Briefly, 2.5-5.0×10^6 T2 cell (transfected or untransfected) were washed once with incubation buffer (130 mM KCl, 10 mM NaCl, 1 mM CaC2, 2 mM EDTA, 2 mM MgCl2, 5 mM Hepes, pH 7.3) and permeabilized for 10 minutes at 37° C. with streptolysin O (2 IU/ml) (Wellcome, Beckenham, UK) in 50 μl of incubation buffer. After further addition of 10 μl of 100 mM adenosine triphosphate, 10 μl of ^125 I-labeled peptide (~15 pM), and 30 μl of incubation buffer, cells were incubated for an additional 10 minutes at 37° C. Transport was terminated by the addition of 1 ml of 1% NP-40 detergent, after which nuclei were removed by centrifugation and glycosylated peptides were recovered using concanavalin A-Sepharose (Sigma, St. Louis, Mo.) and quantitated with a gamma counter (LKB-Wallac).
Differential peptide selectivity of the TAP1/TAP2 and TAP1/TAP2iso heterodimers was further investigated by competition experiments with ^125 I-labeled Peptide […] (SEQ ID NO: 6) and various unlabeled peptides: Peptide […] (SEQ ID NO: 6); Peptide […] (SEQ ID NO: 7); Peptide […] (SEQ ID NO: 8); Peptide […] (SEQ ID NO: 9), the S1-24 fragment of human adrenocorticotropic hormone); and Peptide […] (SEQ ID NO: 10), residues 22 to 30 (human insulin B chain). The iodinated 9-mer Peptide […] was translocated in the presence of different concentrations of unlabeled competition peptides. The glycosylated peptides were recovered by Con A-Sepharose and quantitated. […] (self); (6B) competition of ^125 I-Peptide […] with Peptide […]; (6C) competition of ^125 I-Peptide […] with Peptide […]; and (6D) competition of ^125 I-Peptide […] with Peptide […]; and (6E) competition of ^125 I-Peptide […] with Peptide […].

The subject of test [2] is TAP1/TAP2iso heterodimer (compared with TAP1/TAP2). Briefly: translocation of 125I-labeled peptides into the ER of permeabilized T2 transfectants. Format: cell-based, human. Conditions: 125I-labeled glycosylated peptide recovered from streptolysin O permeabilized T2 transfectants; comparison in words. As to the method: 10 mM stock solutions of peptides were prepared in dimethyl sulfoxide. Peptides (25 μg) were directly iodinated at unique tyrosine residues with the use of chloramine T (Sigma, St. Louis, Mo.), and free iodine was removed by gel filtration using Sephadex G 10 (Pharmacia) column chromatography.
as §1

Entries after “also recorded” stand apart in the source; their conditions may differ.

For IYLGPFSPNVTL [Peptide IYLGPFSPNVTL], in test [1], the “transportation of test peptides (relative IC50)” value is reported as “equal efficiency”. In addition, the “inhibition of transport of 125I-Peptide RRYQNSTEL, TAP1/TAP2iso compared with TAP1/TAP2 transfectants” value on TAP1/TAP2iso heterodimer is given as “markedly greater extent in TAP1/TAP2iso transfectants”. The “amount of translocated peptide, TAP1/TAP2iso compared with TAP1/TAP2” value in test [2] is listed as “transported to a greater extent by TAP/TAP2iso; also recorded: four times more efficiently by the TAP1/TAP2iso heterodimer”.

For the sequence “RGFFYTPKA [Peptide RGFFYTPKA, residues 22 to 30 (human insulin B chain)]”, in the test with TAP1/TAP2iso heterodimer, the “inhibition of transport of 125I-Peptide RRYQNSTEL, TAP1/TAP2iso compared with TAP1/TAP2 transfectants” value was “in TAP1/TAP2iso to a greater extent”.

As to TVDNKTRYE [Peptide TVDNKTRYE], the “transportation of test peptides (relative IC50)” value in test [1] is reported as “equal efficiency”. The “inhibition of transport of 125I-Peptide RRYQNSTEL, TAP1/TAP2iso compared with TAP1/TAP2 transfectants” value on TAP1/TAP2iso heterodimer is listed as “markedly greater extent in TAP1/TAP2 transfectants”. Further, the “amount of translocated peptide, TAP1/TAP2iso compared with TAP1/TAP2” value in test [2] is listed as “transported to a greater extent by TAP1/TAP2; also recorded: transported more efficiently in the TAP1/TAP2 transfectant”.

The values above are taken from patent US6284879A, “Transport associated protein splice variants” (The General Hospital Corporation, priority 1998, dated 2001).
